Type in all cases: cell-based
Assay [1] has as its target T1, OR2M3 (Homo sapiens, UniProt Q8NG83).
T1 construct: full coding region amplified from human genomic DNA, N-terminal IL-6-HaloTag kept, transient in NxG 108CC15 cells with RTP1S, G-alpha-olf, G-gamma-13, GloSensor-22F
T1 sequence (Q8NG83 1-312): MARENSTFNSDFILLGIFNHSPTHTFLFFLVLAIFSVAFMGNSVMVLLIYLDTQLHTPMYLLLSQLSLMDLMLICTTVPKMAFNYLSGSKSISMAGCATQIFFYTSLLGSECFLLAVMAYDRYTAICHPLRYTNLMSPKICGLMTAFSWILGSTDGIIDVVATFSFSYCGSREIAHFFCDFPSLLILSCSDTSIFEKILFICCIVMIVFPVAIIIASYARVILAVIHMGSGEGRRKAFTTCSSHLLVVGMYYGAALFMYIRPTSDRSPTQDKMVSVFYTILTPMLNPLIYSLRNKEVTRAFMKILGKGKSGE
The assay can be described thus: GloSensor cAMP luminescence. The following applies: IL-6-HaloTag construct, NxG […]CC15 cells, pH […] DMSO, RTP1S/Gαolf/Gγ[…] co-transfected; agonist; read-out: IL-6-HaloTag®-receptor / EC50. The source says: GloSensor cAMP luminescence on OR2M3

In assay [2] the target is T2, OR1A1 (Homo sapiens, UniProt Q9P1Q5).
T2 construct: full coding region amplified from human genomic DNA, N-terminal IL-6-HaloTag kept, transient in NxG 108CC15 cells with RTP1S, G-alpha-olf, G-gamma-13, GloSensor-22F
T2 sequence (Q9P1Q5 1-309): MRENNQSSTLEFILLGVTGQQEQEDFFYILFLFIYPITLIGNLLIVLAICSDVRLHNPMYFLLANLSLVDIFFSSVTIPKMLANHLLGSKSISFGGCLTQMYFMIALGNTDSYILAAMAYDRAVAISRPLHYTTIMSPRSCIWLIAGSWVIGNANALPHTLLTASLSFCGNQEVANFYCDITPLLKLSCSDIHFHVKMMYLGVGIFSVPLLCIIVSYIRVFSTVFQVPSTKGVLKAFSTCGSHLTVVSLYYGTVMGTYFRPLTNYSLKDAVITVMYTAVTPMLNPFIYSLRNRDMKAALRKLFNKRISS
Kind of assay: GloSensor cAMP luminescence. The following applies: read-out: IL-6-HaloTag®-receptor / EC50. The text has this:
GloSensor cAMP luminescence on OR1A1

For assay [3], the target named is T2, OR1A1. The assay can be described thus: GloSensor cAMP luminescence, single-concentration screen. The following applies: IL-6-HaloTag construct, NxG […]CC15 cells, n = […] in duplicates, agonist.
Assay [4] concerns the target T3, OR2W1 (Homo sapiens, UniProt Q9Y3N9).
T3 construct: full coding region amplified from human genomic DNA, N-terminal IL-6-HaloTag kept, transient in NxG 108CC15 cells with RTP1S, G-alpha-olf, G-gamma-13, GloSensor-22F
T3 sequence (Q9Y3N9 1-320): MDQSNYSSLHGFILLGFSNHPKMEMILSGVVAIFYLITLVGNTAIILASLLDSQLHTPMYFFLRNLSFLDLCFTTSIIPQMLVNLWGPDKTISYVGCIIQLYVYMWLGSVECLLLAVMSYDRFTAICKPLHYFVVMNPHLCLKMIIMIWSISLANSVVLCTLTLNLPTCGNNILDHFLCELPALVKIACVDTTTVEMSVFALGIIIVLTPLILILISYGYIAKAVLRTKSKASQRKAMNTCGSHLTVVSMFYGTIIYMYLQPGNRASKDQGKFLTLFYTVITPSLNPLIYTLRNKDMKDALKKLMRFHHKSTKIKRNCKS
Kind of assay: GloSensor cAMP luminescence. The text has this: GloSensor cAMP luminescence on OR2W1

The target in assay [5] is T4, OR51E1 (Homo sapiens, UniProt Q8TCB6).
T4 construct: full coding region amplified from human genomic DNA, N-terminal IL-6-HaloTag kept, transient in NxG 108CC15 cells with RTP1S, G-alpha-olf, G-gamma-13, GloSensor-22F
T4 sequence (Q8TCB6 1-318): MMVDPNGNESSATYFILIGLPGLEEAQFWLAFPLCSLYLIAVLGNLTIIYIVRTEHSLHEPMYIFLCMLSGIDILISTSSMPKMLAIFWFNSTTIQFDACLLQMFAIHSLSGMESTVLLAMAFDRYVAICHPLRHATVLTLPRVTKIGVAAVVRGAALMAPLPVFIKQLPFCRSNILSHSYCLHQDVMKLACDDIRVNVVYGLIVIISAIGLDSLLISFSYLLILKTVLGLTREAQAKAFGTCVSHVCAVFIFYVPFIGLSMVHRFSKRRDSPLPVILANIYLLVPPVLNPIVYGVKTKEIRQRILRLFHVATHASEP
Kind of assay: GloSensor cAMP luminescence. Conditions: read-out: IL-6-HaloTag®-receptor / EC50. The text has this: GloSensor cAMP luminescence on OR51E1

In assay [6] the target is T5, Olfr16 (Mus musculus, UniProt Q62007).
T5 construct: gene Or10j5; full coding region amplified from mouse genomic DNA, N-terminal IL-6-HaloTag kept, transient in NxG 108CC15 cells with RTP1S, G-alpha-olf, G-gamma-13, GloSensor-22F
T5 sequence (Q62007 1-309): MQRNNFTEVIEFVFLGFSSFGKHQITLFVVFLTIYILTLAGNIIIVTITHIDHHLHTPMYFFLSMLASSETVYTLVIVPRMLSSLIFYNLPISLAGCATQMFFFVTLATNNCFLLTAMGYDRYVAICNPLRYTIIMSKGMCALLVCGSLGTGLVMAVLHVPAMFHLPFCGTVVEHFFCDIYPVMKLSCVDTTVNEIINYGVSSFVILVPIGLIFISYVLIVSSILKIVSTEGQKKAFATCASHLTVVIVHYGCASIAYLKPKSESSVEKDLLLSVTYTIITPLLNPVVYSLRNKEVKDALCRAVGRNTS
The assay can be described thus: GloSensor cAMP luminescence. The following applies: read-out: IL-6-HaloTag®-receptor / EC50. The source says: GloSensor cAMP luminescence on Olfr16

Assay [7] addresses T6, OR10J5 (Homo sapiens, UniProt Q8NHC4).
T6 construct: full coding region amplified from human genomic DNA, N-terminal IL-6-HaloTag kept, transient in NxG 108CC15 cells with RTP1S, G-alpha-olf, G-gamma-13, GloSensor-22F
T6 sequence (Q8NHC4 1-309): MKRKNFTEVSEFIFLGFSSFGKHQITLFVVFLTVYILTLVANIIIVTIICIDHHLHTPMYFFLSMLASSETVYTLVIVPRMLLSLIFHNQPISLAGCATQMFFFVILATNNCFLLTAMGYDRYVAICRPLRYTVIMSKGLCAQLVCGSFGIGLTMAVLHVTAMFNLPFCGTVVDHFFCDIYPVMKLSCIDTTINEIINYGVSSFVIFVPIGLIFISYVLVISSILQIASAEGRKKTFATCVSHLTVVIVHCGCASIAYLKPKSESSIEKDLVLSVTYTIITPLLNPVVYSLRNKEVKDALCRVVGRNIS
Kind of assay: GloSensor cAMP luminescence. The following applies: read-out: IL-6-HaloTag®-receptor / EC50. The text has this: GloSensor cAMP luminescence on OR10J5

Assay [8] deals with T7, OR8D1 (Homo sapiens, UniProt Q8WZ84).
T7 construct: full coding region amplified from human genomic DNA, N-terminal IL-6-HaloTag kept, transient in NxG 108CC15 cells with RTP1S, G-alpha-olf, G-gamma-13, GloSensor-22F
T7 sequence (Q8WZ84 1-308): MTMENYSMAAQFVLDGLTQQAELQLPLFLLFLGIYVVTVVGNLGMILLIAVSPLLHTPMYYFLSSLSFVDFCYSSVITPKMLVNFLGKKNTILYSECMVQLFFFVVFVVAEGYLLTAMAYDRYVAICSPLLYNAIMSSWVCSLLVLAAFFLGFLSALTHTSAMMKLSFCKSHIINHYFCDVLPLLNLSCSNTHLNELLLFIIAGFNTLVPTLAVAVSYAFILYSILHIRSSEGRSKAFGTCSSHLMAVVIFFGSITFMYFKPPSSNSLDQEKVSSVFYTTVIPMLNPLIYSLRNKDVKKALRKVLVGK
The assay can be described thus: GloSensor cAMP luminescence. The text has this:
GloSensor cAMP luminescence on OR8D1

`CCC(S)C(C)CO` (centres unmarked) [3-mercapto-2-methylpentan-1-ol]: the EC50 in assay [1] turned out to be 1080 ± 1160 nM.

For `C=C(C)[C@@H]1CC=C(C)C(=O)C1` [(R)-(-)-carvone], the EC50 in assay [2] was determined as 7.66 ± 4.75 µM.

For the molecule `C=CCOC(=O)Cc1ccccc1` [allyl phenyl acetate], the “GloSensor cAMP luminescence, single-concentration screen” value in assay [3] is “allyl phenyl acetate best activated OR1A1 and OR2W1”. Moreover, the EC50 in assay [4] amounted to 27 ± 1.37 µM.

As for `CCCC(=O)O` [butyric acid], the EC50 in assay [5] is 95.6 ± 33.4 µM.

Take `CC(C)(O)CCCC1=CCC(C=O)CC1` (centres unmarked) [lyral]: the EC50 in assay [6] was determined as 34 ± 2.21 µM; in assay [7], 16.3 ± 1.05 µM.

`CC1=C(O)C(=O)OC1C` (centres unmarked) [sotolone] registered an EC50 in assay [8] of 1810 ± 190 nM.

Values taken from article PMC6706138, “IL-6–HaloTag® enables live-cell plasma membrane staining, flow cytometry, functional expression, and de-orphaning of recombinant odorant receptors” (Journal of Biological Methods, 2017).
